# Assay results taken from paper PMC12036971 (2025).
# Molecular target: Akita16 HA (crystal construct) (Influenza A virus (A/black swan/Akita/1/2016(H5N6)), UniProt A0A1L7N0F8)
smiles,measurement,value
"CC(=O)N[C@H]1[C@H](O[C@H]2[C@@H](O)[C@@H](CO)O[C@@H](O[C@H]3[C@H](O)[C@@H](O)C(O)O[C@@H]3CO)[C@@H]2O)O[C@H](CO)[C@@H](O)[C@@H]1O[C@@H]1O[C@H](CO)[C@H](O)[C@H](O[C@]2(C(=O)O)C[C@H](O)[C@@H](NC(C)=O)[C@H]([C@H](O)[C@H](O)CO)O2)[C@H]1O (stereo partly shown) [LSTa, NeuAcα2-3Galβ1-3GlcNAcβ1-3Galβ1-4Glc]","X-ray crystal structure of complex, 2.71 Å","Akita16-WT HA structure with avian-type receptor analog, LSTa"
